Residues, ends and D or L forms follow the SMILES beside them.
Tests used:
PIK3R3-C SH2 domain [1] = target: T1, PIK3R3-C SH2 domain (Homo sapiens, UniProt Q92569); assay: biochemical; format: binding; conditions: FP, PIK3R3-C; mean; NA = no interaction detected
T1 construct: thioredoxin; made in house; host or cells: E. coli BL21(DE3)pLysS

PLCG1-C SH2 domain [2] = target: T2, PLCG1-C SH2 domain (Homo sapiens, UniProt P19174); assay: biochemical; format: binding; conditions: FP, PLCG1-C; mean; NA = no interaction detected
T2 construct: The 6X His-tagged SH2 domain proteins used in the assay, PLCG1-C, SHC4, VAV2; thioredoxin; made in house; host or cells: E. coli BL21(DE3)pLysS
T2 sequence (P19174 668-756 limits assumed): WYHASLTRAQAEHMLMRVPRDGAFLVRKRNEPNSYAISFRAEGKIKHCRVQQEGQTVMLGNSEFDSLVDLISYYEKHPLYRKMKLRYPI

PIK3R3-C SH2 domain [3] = target: T1, PIK3R3-C SH2 domain; assay: Surface plasmon resonance (Biacore 3000); format: binding; conditions: SPR, NA = no interaction detected
Experimental: (§1) All SPR experiments were performed using Biacore 3000 (GE HealthCare, Piscataway, NJ) instrumentation. 6X His-tagged SH2 domain proteins were immobilized on a nitriloacetic acid (NTA) sensor chip (GE HealthCare, Piscataway, NJ) charged with Ni^2+ ions. Dye-free ErbB family peptides were applied to the sensor chip in a single flow cell in solution phase (while the other flow cell was used as a reference control) and binding events were measured under equilibrium conditions. FP false positive [drawing 7] (FPR), false discovery [drawing 8] (FDR), and false negative [drawing 9] (FNR) rates were calculated by defining true positives (TP) as interactions detected by both FP and SPR, true negatives (TN) as interactions detected by neither FP nor SPR; false positives as interactions identified by FP but not validated by SPR; and false negatives (FN) as interactions missed by FP but detected by SPR. Additional details for all methods are provided in the Supplementary Methods.
(§2) A randomly selected set of 12 recombinant SH2 domain proteins and unlabeled (rhodamine dye free) peptides (9 ErbB, 2 GAB1, 2 KIT, 2 MET) were generated for the surface plasmon resonance (SPR) validation study. The 6X His-tagged SH2 domain proteins used in the assay, PLCG1-C, SHC4, VAV2, TNS3, PIK3R3-C, SYK-C, PIK3R1-N, SUPT6H, CRKL, TEC, SHB, and SHC3 were produced and purified as previously described (see “SH2 and PTB domain proteins” section and Jones et al., 2006). Fresh protein stocks were generated so as to avoid bias incurred from proteins previously used in the FP assays. 13-mer peptides corresponding to ErbB1 pY801, ErbB1 pY900, ErbB1 pY978, ErbB1 pY1069, ErbB2 pY685, ErbB pY803, ErbB3 pY912, ErbB4 pY833, ErbB4 pY906, GAB1 pY183, GAB1 pY472, KIT pY570, KIT pY936, MET pY1093 and MET pY1313, were synthesized successfully for the assay using previously described approaches (see “FP competitor peptide synthesis” section). For SPR detection via the Biacore 3000 (GE HealthCare, Piscataway, NJ), His-tagged SH2 domains were immobilized on Biacore NTA sensor chips (GE HealthCare, Piscataway, NJ) pre-charged with Ni^2+ ions in one flow cell while the second served as a negative control reference cell. Peptides were introduced in solution phase to both cells and relative response units (RUs) were recorded from output sensograms. Nine concentrations of peptide and a buffer control, in duplicate, were used to determine KDs using the equilibrium method (best-fit simultaneous modeling for peptide association and disassociation curves).

PLCG1-C SH2 domain [4] = target: T2, PLCG1-C SH2 domain; assay: Surface plasmon resonance (Biacore 3000); format: binding; conditions: SPR, NA = no interaction detected
Experimental: as §1, §2

[5] = system: 93 human SH2 domains and 2 phosphotyrosine binding (PTB) domains; assay: FP saturation binding assay, whole domain panel (protein named per line or not at all)
Experimental: (See Figure 1A) Rhodamine-labeled peptides were dissolved in assay buffer (20 mM HEPES, 100 mM KCl, 0.1% Tween-20, 5 mM DTT, pH 7.8), diluted to a concentration of 20 nM, and plated into black 384-well plates (Corning, Corning, NY) at 5 µL/well using a Perkin Elmer EP3 pipetting workstation (V&P Scientific, Inc., San Diego, CA). SH2, PTB, and thioredoxin control proteins were plated into the first column of 2 mL 96-well plates (Corning) at a concentration of 20 µM and serially diluted 1∶2 into freezing buffer (300 mM NaCl, 50 mM Na2PO4, pH 8, 20% glycerol v/v) eleven times using a Tecan Freedom EVO 100 workstation (Tecan, Männedorf, Switzerland). For the interaction assay, 5 µL of each of the twelve protein concentrations was added to the peptide-containing 384-well plates via the EP3 resulting in a protein dilution range of 0.002–10 µM and a final volume of 10 µL; peptide concentration was fixed at 10 nM. Peptide/protein samples were incubated for 20 minutes at room temperature in the dark and fluorescence polarization (FP) was measured in an Analyst GT multimode reader (Molecular Devices, Sunnyvale, CA) with excitation and emission wavelengths of 530 nm and 555 nm, respectively. Experimental values were output as millipolarization (mP) units and imported into MATLAB (The MathWorks, Inc., Natick, MA) in which equation (1) was used to determine dissociation constants (KDs) for each protein/peptide pairing by least squares nonlinear regression. [drawing 1] (1)
To scale up the number of interaction measurements while minimizing variation introduced by human intervention, we utilized an automated robotic platform (Figure 1A; see experimental procedures and Supplementary Methods) to transfer, incubate, and measure the fluorescence polarization (FP) induced from interactions of a titration series of SH2 domains with synthetic rhodamine-labeled ErbB phosphopeptides. Experimental values were output as millipolarization (mP) units and equation (1) was used to fit apparent midpoint dissociation constants (KDs) for each protein/peptide pair using non-linear regression (see experimental procedures).
For this interaction analysis, we synthesized and queried the interaction of phosphopeptides corresponding to 89 of 92 ErbB family intracellular tyrosines with 93 SH2 domains. Because nine peptide sequences share 100% identity between the receptors in the 4 to 7 amino acids C-terminal to the phosphorylated tyrosine, our peptide set consisted of 81 phosphopeptides corresponding to the 89 unique tyrosine containing sequences (Table S2). This peptide set represents a 50% increase over the three PM studies performed to date. We were therefore able to obtain a more systematic and unbiased view of the relative SH2 domain recruitment potential of each receptor. Although most ErbB receptor auto-phosphorylation sites have been detected frequently by mass spectrometry because of their high relative modification stoichiometry, non-auto-phosphorylation sites have been reported less frequently in the literature (Table S3). We reasoned that many physiologically relevant and uncharacterized ErbB tyrosines of low phosphorylation stoichiometry may exist and that our comprehensive interaction analysis might implicate their importance in mediating physiological interactions. We tested the majority of interactions (7099/8160 (87.0%); Figure S3) three or more times and reported standard error for all interactions that were detected in at least three FP runs (Table S4). […] Analysis of this polarization data may be useful for inferring how SH2 proteins bind to different peptide sequences. Larger proteins and proteins binding closer to the N-terminal rhodamine tag of a given peptide would be expected to induce higher maximal polarization (the calculated maximal polarization value at infinite protein concentration) than proteins binding farther from the tag. In addition to phosphopeptides, we queried a representative set of 27 non-phosphopeptides against the entire domain set. […]

TNS3 SH2 domain = target: T3, TNS3 SH2 domain (Homo sapiens, UniProt Q68CZ2); assay: FP saturation binding assay; conditions: FP saturation assay; Tensin family SH2 domains
T3 sequence (Q68CZ2 1172-1282 limits assumed): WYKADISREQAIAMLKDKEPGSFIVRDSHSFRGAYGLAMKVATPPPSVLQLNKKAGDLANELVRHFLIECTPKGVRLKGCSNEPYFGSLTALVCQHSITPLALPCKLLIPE

TENC1 SH2 domain = assay: FP saturation binding assay; conditions: Tensin family SH2 domains
TNS1 SH2 domain = target: T4, TNS1 SH2 domain (Homo sapiens, UniProt Q9HBL0); assay: FP saturation binding assay; conditions: Tensin family SH2 domains
T4 sequence (Q9HBL0 1567-1676 limits assumed): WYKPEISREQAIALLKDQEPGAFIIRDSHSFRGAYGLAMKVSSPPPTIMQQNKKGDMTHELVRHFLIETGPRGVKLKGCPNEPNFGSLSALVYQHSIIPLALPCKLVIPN

SH2 and PTB domains = conditions: protein SYK-N; ref Kaushansky et al. Mol Biosys 2008; cited from earlier work
Source text: Supplement pone.0044471.s022.xlsx, sheet "Most recent PM interactions" | column: Kd || Supplement pone.0044471.s022.xlsx, sheet "All original PM interactions" | column: Kd

| Molecule | Kd (PLCG1-C SH2 domain [2]) | Kd (PLCG1-C SH2 domain [4]) | affinity of recruitment of TNS3 (TNS3 SH2 domain) | affinity of recruitment of TENC1 (TENC1 SH2 domain) | affinity of recruitment of TNS1 (TNS1 SH2 domain) | other results |
| --- | --- | --- | --- | --- | --- | --- |
| CC(C)C[C@H](NC(=O)[C@H](CCC(=O)O)NC(=O)[C@H](Cc1c[nH]c2ccccc12)NC(=O)[C@@H](NC(=O)[C@@H](NC(=O)[C@@H](NC(=O)CNC(=O)[C@H](Cc1ccc(OP(=O)(O)O)cc1)NC(=O)[C@H](CO)NC(=O)[C@H](Cc1c[nH]c2ccccc12)NC(=O)[C@@H](NC(=O)[C@@H](N)CC(=O)O)C(C)C)C(C)C)[C@@H](C)O)C(C)C)C(=O)N[C@@H](CC(=O)O)C(=O)O [ErbB1 900] | 15.5 µM | 10.9 µM |  |  |  | Kd (PIK3R3-C SH2 domain [1]): 5.83 µM; Kd (PIK3R3-C SH2 domain [3]): 1470 nM |
| AKGMpYYLEEHGMd [ErbB3 pY823] |  |  | relatively high affinity | relatively high affinity | relatively high affinity | interaction with the SH2/PTB domain panel ([5]; KD <= 20 µM counted as interaction): reproducibly interacted at high affinity with many SH2 domains; SH2 domains found to interact ([5]; high-confidence interactions (Table S11, Figure S14)): interacted with Src kinase and tensin family SH2 domains |
| CLLDpYVREHKDNd [ErbB1 pY801] |  |  | relatively high affinity | relatively high affinity | relatively high affinity | Kd (SH2 and PTB domains): 560 nM |
| CSCC[C@H](NC(=O)CNC(=O)[C@@H](N)CCCCN)C(=O)N[C@@H](CCSC)C(=O)N[C@@H](Cc1ccc(OP(=O)(O)O)cc1)C(=O)N[C@@H](CC(C)C)C(=O)N[C@@H](CCC(=O)O)C(=O)N[C@@H](CCC(=O)O)C(=O)N[C@@H](CCCNC(=N)N)C(=O)N[C@@H](CCCNC(=N)N)C(=O)N[C@@H](CC(C)C)C(=O)N[C@H](C(=O)N[C@@H](CC(=O)O)C(=O)O)C(C)C [ErbB4 833] (HELM PEPTIDE1{K.G.M.M.[O=C([C@H](Cc1ccc(OP(=O)(O)O)cc1)N[*:1])[*:2]].L.E.E.R.R.L.V.D}$$$$V2.0) | 4.73 µM | 3.46 µM |  |  |  |  |
| CC[C@H](C)[C@H](NC(=O)[C@@H](NC(=O)[C@H](CC(C)C)NC(=O)[C@H](Cc1ccc(OP(=O)(O)O)cc1)NC(=O)[C@H](CCCNC(=N)N)NC(=O)[C@H](CCC(N)=O)NC(=O)[C@@H]1CCCN1C(=O)[C@@H](N)CC(=O)O)C(C)C)C(=O)N[C@@H](CCC(N)=O)C(=O)NCC(=O)N[C@@H](CC(=O)O)C(=O)N[C@@H](CCC(=O)O)C(=O)N[C@@H](CC(=O)O)C(=O)O [ErbB1 978] (HELM PEPTIDE1{D.P.Q.R.[O=C([C@H](Cc1ccc(OP(=O)(O)O)cc1)N[*:1])[*:2]].L.V.I.Q.G.D.E.D}$$$$V2.0) | 1.37 µM | 0.43 µM |  |  |  |  |

From paper PMC3433420 (PLoS ONE, 2012)
